This is an account of results in patent publication US11319348B2, “Synthetic beta-amyloid peptides capable of forming stable antigenic oligomers” (The Regents of the University of California, priority 2016, dated 2022).

A short description of data set [1]: Tricine SDS-PAGE with silver staining. The format is physicochemical. From the text:
Trimer 3 migrates as a single band at a molecular weight consistent with a hexamer. Trimer 4, in contrast, migrates as two distinct bands: a band consistent with the molecular weight of a dodecamer, and a band consistent with the molecular weight of a trimer.
Peptide 8 assembles to form a hexamer in SDS-PAGE. […] To further confirm the oligomerization state of […], it was compared to covalent trimers 3 and 4 (FIGS. 19A and 19B), which was previously determined to migrate respectively as 10.6 kDa hexamers and 21.2 kDa dodecamers in equilibrium with the 5.3 kDa trimers. Peptide 8 migrates at the same molecular weight as the hexamer band of trimer 3, providing further evidence that peptide 8 assembles to form a hexamer in SDS-PAGE.
The oligomerization of peptides 1 and 2 and trimers 3 and 4 was studied by Tricine SDS-PAGE.
Each peptide or trimer was dissolved in deionized water to a concentration of 10 mg/mL. An aliquot of the 10 mg/mL solutions was diluted with deionized water to create 2 mg/mL solutions of peptides 1 and 2, or 0.12 mg/mL solutions of trimers 3 and 4. The […] of peptides 1 and 2, as well as the 0.12 mg/mL solutions of trimers 3 and 4 were further diluted with 2×SDS-PAGE loading buffer (100 mM Tris buffer at pH 6.8, 20% (v/v) glycerol, and 4% SDS) to create 1 mg/mL working solutions of peptides 1 and 2, and 0.06 mg/mL working solutions of trimers 3 and 4. A 5 μL aliquot of each working solution was run on a 16% polyacrylamide gel with a 4% stacking polyacrylamide gel. The gels were run at a constant 60 volts at 4° C.
Staining with silver nitrate was used to visualize peptides 1 and 2 and trimers 3 and 4 in the SDS-PAGE gel. Briefly, the gel was removed from the casting glass and rocked in fixing solution (50% (v/v) methanol and 5% (v/v) acetic acid in deionized water) for 20 min. Next, the fixing solution was discarded and the gel was rocked in 50% (v/v) methanol for 10 min. Next, the 50% methanol was discarded and the gel was rocked in deionized water for 10 min. Next, the water was discarded and the gel was rocked in 0.02% (w/v) sodium thiosulfate in deionized water for 1 min. The sodium thiosulfate was discarded and the gel was rinsed with deionized water (2×). After the last rinse, the gel was submerged in chilled 0.1% (w/v) silver nitrate in deionized water and rocked at 4° C. for 20 min. Next, the silver nitrate solution was discarded and the gel was rinsed with deionized water (2×). To develop the gel, the gel was incubated in developing solution (2% w/v sodium carbonate, 0.04% formaldehyde until the desired intensity of staining was reached (˜1-3 min). When the desired intensity of staining was reached, the development was topped by discarding the developing solution and submerging the gel in 5% acetic acid.

The nature of data set [2]: size exclusion chromatography in Tris buffer. Type of data set: physicochemical. The text has this:
The elution profile of peptide 8 was compared to the size standards vitamin B12, aprotinin, and cytochrome c, as well as peptide 2. Peptide 8 elutes as a broad peak with three distinct humps (FIG. 41B). […] Peptide 2 elutes as two distinct peaks: a larger peak with an elution volume consistent with the molecular weight of a dimer, and a smaller peak with an elution volume consistent with the molecular weight of a trimer (FIG. 41B). […]

The test system of a further data set is SH-SY5Y cells. The data set can be described thus: LDH release assay. Type of data set: cell-based, human. Here is the method: Aβ is known to be toxic toward neurons and neuronally derived cells (I. Benilova, et al., 2012, cited supra). To corroborate the toxicity of Aβ, we prepared oligomers of Aβ42 and studied their toxicity toward a human neuroblastoma cell line, SH-SY5Y. Aβ oligomers were prepared according to the procedure developed by Teplow and coworkers using recombinantly expressed Aβ42 pretreated with NH4OH (purchased from rPeptide) (D. B. Teplow, Methods Enzymol. 2006 413, 20-33; and Y. Fezoui, et al., Amyloid. 2000 7, 166-178; the disclosures of which are incorporated herein by reference). Under the conditions of the oligomer preparation, Aβ42 forms predominantly monomer, trimer, and tetramer as assessed by SDS-PAGE (FIG. 28A). It was also observed that bands migrated with molecular weights consistent with a pentamer and hexamer. SH-SY5Y cells were treated with varying concentrations of Aβ42, and toxicity was evaluated using a lactate dehydrogenase (LDH) release assay. Aβ42 increased LDH release in a dose-dependent manner at concentrations as low as 2.5 μM, corroborating the toxicity of Aβ42 (FIG. 28B).
It was hypothesized that trimers 3 and 4 may elicit toxicity similarly to Aβ42. The toxicities of trimers 3 and 4 towards SH-SY5Y cells were evaluated using an LDH assay, using deionized water (vehicle) and peptides 1 and 2 as controls. Trimer 4 increased LDH release in a dose-dependent manner at concentrations as low as 1.5 μM, indicating toxicity toward SH-SY5Y cells (FIG. 29A). LDH release was observed as early as 48 h after addition to the cells and reached a maximum after 72 h.
Many oligomers formed by full-length Aβ are toxic toward cells (I. Benilove, E. Karan, and B. De Strooper, Nat. Neurosci. 2012 15, 349-357; and M. E. Larson and S. E. Lesne J. Neurochem. 2012 120, 125-139; the disclosures of which are incorporated herein by reference). To test whether the oligomers formed by peptide 8 are also toxic, the toxicity of peptide 8 toward neuronally derived SH-SY5Y cells were evaluated using a lactate dehydrogenase (LDH) release assay. Peptide 8 and 10 were compared to investigate how the hexamer-forming Aβ16-36-derived peptide compares to a non-oligomerizing homologue. The toxicity of peptides 2 and 11 were also evaluated to better understand the relationship between oligomerization and toxicity.
The toxicities of peptides 1 and […], and trimers 3 and 4 toward SH-SY5Y cells were assessed by LDH release and caspase-3 activation assays. Cells were incubated in the presence or absence of equivalent concentrations of peptides 1 or 3, or trimers 3 and 4 for 72 h in 96-well plates. The LDH release assay was performed using the Pierce LDH Cytotoxicity Assay Kit from Thermo Scientific. The caspase-3 assay was performed using the Roche APO-One Homogeneous Caspase-3/7 Assay. Experiments were performed in replicates of five and an additional 10 wells were used for controls. Cells were cultured in the inner 60 wells (rows B-G, columns 2-11) of the 96-well plate. DMEM:F12 media (100 μL) was added to the outer wells (rows A and H, columns 1 and 12), in order to ensure the greatest reproducibility of data generated in the inner wells.
A 10 mg/mL stock solution of peptides 1 or […], or trimers 3 and 4 was prepared gravimetrically by dissolving 1 mg of each compound in 100 μL of deionized water that was either filtered through a 0.2 μm syringe filter or autoclaved. The stock solution was used to create 180 μM working solutions of peptides 1 or 3, or 60 μM working solutions of trimers 3 and 4 (these solutions contain equivalent concentrations of peptide). The 180 μM working solutions of peptides 1 and 2 were serially diluted with deionized water to create 90 μM working solutions of peptides 1 and 2. The 60 μM working solutions of trimers 3 and 4 were serially diluted with deionized water to create 30 μM, 15 μM, and 7.5 μM working solutions of trimers 3 and 4.
SH-SY5Y cells were plated in a 96-well plate at 30,000 cells per well. […]

“Also recorded” adds a separate entry of the source.

Take “peptide 8: Aβ16-22 and Aβ30-36 β-strands linked by two δOrn turn units, N-methyl on Phe19, native Met35 (Seq. ID 33-34)”: in data set [1], the “oligomer state by migration in SDS-PAGE” value was “hexamer”. Also, the oligomer size entry in data set [2] (SEC) was “monomer, dimer,; also recorded: trimer”. In addition, the “oligomer state consistent with SEC elution volume” value in data set [2] (absence of SDS) is “dimers and trimers; also recorded: monomer, dimer, and trimer”. Also, the “dose dependence of LDH release” value with SH-SY5Y cells (50, 100 and 200 μM) is given as “No dose dependence”. In addition, in the data set on SH-SY5Y cells (SH-SY5Y cells), the “LDH release / toxicity toward SH-SY5Y cells, in words” value is “toxic” and the “lowest concentration with increased LDH release / toxicity (concentrations as low as)” value was determined as 50 µM.

Take “Aβ42: oligomers prepared from recombinantly expressed Aβ42 pretreated with NH4OH (purchased from rPeptide) [reference compound]”: the “lowest concentration with increased LDH release / toxicity (concentrations as low as)” value in the data set on SH-SY5Y cells (SH-SY5Y cells) is 2.5 µM.
